Measurements as given in ChEMBL document CHEMBL1201862, “PubChem BioAssay data set” (2004).
Activity calls are given as the source filed them.

Experiments:
[1] = target: T1, Sentrin-specific protease 7 (Homo sapiens, UniProt Q9BQF6); assay type: functional;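 also: Luminescence-based dose-response confirmation of ultra-high-throughput screening hits, measuring inhibition of SENP7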
T1 sequence (Q9BQF6 whole entry): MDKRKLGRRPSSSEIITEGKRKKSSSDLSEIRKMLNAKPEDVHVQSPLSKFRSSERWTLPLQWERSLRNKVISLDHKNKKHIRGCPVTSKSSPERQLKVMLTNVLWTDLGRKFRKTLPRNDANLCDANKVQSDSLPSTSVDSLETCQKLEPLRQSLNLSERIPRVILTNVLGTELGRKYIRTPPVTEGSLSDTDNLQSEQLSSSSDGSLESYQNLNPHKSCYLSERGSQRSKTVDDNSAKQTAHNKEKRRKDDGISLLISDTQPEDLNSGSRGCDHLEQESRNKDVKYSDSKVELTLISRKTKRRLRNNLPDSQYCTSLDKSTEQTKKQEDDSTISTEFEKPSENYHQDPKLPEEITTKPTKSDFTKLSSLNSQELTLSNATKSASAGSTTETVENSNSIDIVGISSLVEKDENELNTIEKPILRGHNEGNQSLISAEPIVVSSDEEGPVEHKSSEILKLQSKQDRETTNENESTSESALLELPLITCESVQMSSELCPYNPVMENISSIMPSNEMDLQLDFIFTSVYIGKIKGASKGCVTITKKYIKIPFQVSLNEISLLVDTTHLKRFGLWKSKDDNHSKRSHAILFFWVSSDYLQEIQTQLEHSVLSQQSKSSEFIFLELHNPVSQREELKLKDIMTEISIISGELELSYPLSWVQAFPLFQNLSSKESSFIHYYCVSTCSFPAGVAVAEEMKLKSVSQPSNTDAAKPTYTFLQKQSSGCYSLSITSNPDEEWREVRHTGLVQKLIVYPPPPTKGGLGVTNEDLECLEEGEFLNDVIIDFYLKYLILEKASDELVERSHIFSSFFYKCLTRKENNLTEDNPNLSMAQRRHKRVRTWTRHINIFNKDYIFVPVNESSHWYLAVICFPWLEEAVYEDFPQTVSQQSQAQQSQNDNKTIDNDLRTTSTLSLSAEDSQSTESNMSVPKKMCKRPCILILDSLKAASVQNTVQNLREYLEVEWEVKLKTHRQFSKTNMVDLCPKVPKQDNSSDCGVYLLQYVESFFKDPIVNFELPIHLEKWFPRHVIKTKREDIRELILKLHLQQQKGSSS

[2] = target: T2, Caspase-3 (Homo sapiens, UniProt P42574); assay type: functional;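 also: Dose-response selectivity test against caspase-3 for candidate inhibitors of sentrin-specific proteases (SENPs)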
T2 sequence (P42574 whole entry): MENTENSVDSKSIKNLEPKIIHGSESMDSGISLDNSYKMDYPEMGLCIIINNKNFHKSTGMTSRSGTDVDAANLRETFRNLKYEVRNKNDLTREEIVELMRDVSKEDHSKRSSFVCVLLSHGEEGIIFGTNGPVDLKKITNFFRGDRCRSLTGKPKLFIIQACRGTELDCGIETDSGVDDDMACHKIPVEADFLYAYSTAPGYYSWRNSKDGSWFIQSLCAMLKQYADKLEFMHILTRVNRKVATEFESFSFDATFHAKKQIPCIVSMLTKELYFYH

[3] = target: T3, Sentrin-specific protease 8 (Homo sapiens, UniProt Q96LD8); assay type: functional;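 also: luminescence read-out of SENP8 inhibition, dose-response confirmation following an ultra-high-throughput screen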
T3 sequence (Q96LD8 whole entry): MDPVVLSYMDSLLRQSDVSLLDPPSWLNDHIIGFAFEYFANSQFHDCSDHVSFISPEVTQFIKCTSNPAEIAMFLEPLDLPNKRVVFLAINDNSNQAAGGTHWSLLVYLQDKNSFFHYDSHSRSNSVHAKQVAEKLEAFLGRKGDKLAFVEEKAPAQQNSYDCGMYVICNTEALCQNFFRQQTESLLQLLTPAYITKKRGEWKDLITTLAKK

[4] = target: T4, Sentrin-specific protease 6 (Homo sapiens, UniProt Q9GZR1); assay type: functional;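 also: Luminescence-based dose-response confirmatory assay of SENP6 inhibition, following up an ultra-high-throughput screen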
T4 sequence (Q9GZR1 whole entry): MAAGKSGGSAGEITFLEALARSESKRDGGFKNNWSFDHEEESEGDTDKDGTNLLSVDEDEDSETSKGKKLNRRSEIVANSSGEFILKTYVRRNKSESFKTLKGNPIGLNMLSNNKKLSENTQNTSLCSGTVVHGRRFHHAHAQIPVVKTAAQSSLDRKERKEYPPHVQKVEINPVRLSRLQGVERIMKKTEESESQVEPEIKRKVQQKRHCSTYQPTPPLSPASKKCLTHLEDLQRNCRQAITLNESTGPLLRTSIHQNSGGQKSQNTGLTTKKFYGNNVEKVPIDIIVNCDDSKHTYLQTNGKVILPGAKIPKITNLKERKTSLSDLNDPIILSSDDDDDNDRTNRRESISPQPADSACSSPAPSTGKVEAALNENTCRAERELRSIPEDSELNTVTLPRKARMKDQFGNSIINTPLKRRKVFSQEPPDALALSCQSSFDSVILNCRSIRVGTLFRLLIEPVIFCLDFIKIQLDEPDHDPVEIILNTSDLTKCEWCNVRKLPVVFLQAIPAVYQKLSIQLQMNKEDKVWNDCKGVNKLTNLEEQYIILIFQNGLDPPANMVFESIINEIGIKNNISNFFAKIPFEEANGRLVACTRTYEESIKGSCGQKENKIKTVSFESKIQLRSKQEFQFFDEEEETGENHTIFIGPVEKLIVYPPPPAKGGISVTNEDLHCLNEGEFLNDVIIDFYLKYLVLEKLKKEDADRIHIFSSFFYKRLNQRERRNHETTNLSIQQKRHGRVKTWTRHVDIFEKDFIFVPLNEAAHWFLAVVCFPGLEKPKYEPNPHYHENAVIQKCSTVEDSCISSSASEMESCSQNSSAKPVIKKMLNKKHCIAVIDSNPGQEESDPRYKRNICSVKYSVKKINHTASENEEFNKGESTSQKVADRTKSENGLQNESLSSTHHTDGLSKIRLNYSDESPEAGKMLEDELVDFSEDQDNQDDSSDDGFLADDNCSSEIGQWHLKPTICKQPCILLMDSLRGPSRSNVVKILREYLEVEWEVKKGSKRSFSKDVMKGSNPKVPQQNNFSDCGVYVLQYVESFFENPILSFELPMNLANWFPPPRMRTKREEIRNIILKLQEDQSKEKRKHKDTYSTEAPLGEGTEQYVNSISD

[5] = target: T5, Oxysterols receptor LXR-beta (Homo sapiens, UniProt P55055); assay type: functional, cell-based;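 also: agonist activity at LXR measured by a cell-based luminescence readout across a dose range, run as a counterscreen for daf-12 agonists; HEK293 cells with Gal4-LXR fusion and GAL4-driven luciferase reporter; potency for activation of Gal4-LXR reporter so compounds are agonists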
T5 sequence (P55055 whole entry): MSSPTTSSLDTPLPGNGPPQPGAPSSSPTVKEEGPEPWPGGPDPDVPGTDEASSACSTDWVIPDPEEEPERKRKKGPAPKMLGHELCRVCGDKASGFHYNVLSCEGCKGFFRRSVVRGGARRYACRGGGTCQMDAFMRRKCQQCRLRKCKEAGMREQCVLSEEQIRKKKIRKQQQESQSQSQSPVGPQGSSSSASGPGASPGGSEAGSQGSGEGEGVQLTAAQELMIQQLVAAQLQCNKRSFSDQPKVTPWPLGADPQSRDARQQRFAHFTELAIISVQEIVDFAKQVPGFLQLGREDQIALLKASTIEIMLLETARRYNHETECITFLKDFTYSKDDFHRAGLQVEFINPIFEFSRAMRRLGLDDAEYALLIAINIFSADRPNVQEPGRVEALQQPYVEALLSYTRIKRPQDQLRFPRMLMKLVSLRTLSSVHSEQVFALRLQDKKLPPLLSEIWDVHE

[6] = target: T6, Endoribonuclease toxin MazF (Escherichia coli K-12, UniProt P0AE70); assay: fluorescent RNA oligo signal without MazF, dose response, counter-screen for MazEF activator project, biochemical, fluorescence, single-stranded RNase substrate (AID 588502); assay type: functional
T6 sequence (P0AE70 whole entry): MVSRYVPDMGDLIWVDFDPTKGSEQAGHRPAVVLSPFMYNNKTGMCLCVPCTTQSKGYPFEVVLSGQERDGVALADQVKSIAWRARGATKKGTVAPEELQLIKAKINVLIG

[7] = target: T6, Endoribonuclease toxin MazF; assay: MazF toxin RNase activators, dose response, biochemical, fluorescence, single-stranded RNA substrate, uHTS hits (AID 588481); assay type: functional
[8] = target: T7, Corticotropin-releasing factor receptor 2/Corticotropin-releasing factor-binding protein (Homo sapiens, UniProt P24387+Q13324); assay: activators of CRF receptor 2 with binding protein – uHTS hits, confirmation (AID 602473); assay type: functional; settings: read-out: EC50_Mean
T7 sequence (Q13324 whole entry): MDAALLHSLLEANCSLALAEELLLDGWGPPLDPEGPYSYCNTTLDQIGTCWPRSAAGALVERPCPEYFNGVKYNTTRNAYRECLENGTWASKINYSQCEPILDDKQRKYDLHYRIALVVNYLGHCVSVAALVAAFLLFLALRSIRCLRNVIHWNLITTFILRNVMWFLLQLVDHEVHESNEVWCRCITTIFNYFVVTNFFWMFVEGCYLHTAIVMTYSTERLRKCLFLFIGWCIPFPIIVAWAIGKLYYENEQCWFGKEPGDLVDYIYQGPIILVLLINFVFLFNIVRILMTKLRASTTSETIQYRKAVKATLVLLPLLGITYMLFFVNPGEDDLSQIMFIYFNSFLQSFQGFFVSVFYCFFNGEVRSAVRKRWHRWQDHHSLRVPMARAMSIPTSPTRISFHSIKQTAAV
T7 sequence (P24387 whole entry): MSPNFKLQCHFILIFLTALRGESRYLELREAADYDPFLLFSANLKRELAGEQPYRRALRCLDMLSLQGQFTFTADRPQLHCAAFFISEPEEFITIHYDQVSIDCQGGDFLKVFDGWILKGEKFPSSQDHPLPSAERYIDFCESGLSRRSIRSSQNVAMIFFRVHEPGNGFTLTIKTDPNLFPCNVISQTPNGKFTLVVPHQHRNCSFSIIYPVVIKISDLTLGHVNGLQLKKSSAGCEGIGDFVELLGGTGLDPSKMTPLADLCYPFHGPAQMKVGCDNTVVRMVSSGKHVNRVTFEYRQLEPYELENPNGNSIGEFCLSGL

[9] = target: T8, Short transient receptor potential channel 4 (Mus musculus, UniProt Q9QUQ5); assay: mouse TRPC4 channel inhibitors, dose response, cell-based, HEK293 TRPC4/mu-opioid, Fluo-4 calcium (AID 434942); assay type: functional;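 also: potency of inhibitors blocking the TRPC4 calcium response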
T8 sequence (Q9QUQ5 whole entry): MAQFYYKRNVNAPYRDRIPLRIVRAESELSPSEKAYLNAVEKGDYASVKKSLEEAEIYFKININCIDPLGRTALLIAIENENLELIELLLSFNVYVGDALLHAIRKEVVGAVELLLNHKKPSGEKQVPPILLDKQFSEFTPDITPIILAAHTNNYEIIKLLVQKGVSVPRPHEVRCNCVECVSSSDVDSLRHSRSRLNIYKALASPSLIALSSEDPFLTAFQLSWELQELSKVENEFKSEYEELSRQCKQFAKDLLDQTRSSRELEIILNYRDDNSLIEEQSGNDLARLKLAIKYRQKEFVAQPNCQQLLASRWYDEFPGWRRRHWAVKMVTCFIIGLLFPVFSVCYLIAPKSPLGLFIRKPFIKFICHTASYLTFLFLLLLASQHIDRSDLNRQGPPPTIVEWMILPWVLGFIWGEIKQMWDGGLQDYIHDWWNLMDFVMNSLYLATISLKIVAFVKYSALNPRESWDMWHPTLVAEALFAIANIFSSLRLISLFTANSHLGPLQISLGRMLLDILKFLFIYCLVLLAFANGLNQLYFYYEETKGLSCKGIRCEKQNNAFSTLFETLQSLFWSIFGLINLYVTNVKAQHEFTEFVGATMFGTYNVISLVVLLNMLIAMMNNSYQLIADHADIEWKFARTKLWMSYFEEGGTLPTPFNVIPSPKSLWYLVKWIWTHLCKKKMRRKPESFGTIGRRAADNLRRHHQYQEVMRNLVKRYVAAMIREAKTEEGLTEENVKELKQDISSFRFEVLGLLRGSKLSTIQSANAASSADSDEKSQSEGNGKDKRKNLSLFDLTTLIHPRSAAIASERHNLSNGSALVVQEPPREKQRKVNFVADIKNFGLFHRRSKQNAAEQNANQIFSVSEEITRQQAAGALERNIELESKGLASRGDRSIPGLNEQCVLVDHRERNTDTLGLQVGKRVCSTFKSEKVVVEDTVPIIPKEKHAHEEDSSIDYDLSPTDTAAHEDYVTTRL

[10] = test system: HEK293; assay: inhibitors of LMP1-driven NF-kB reporter, dose response, cell-based, HEK293, luciferase, cherry-pick (AID 588343); assay type: functional; settings: Homo sapiens

Row | SMILES | IC50 [1] | IC50 [2] | IC50 [3] | IC50 [4] | EC50 [6] | EC50 [7] | also measured
1 | Cc1c(C(=O)Nc2ccccc2)csc1-c1ccccc1 | 8.96 µM (active) | 19.3 µM (active) | 7.47 µM (active) | 6.64 µM (active) |  |  | EC50 [5]: > 67.5 µM (inactive)
2 | CCN(CC)S(=O)(=O)c1ccc2oc(Nc3ccccc3)nc2c1 | 9.19 µM (active) | 29.7 µM (active) | > 100 µM (inactive) | > 100 µM (inactive) |  |  | 
3 | CCOc1ccc(S(=O)(=O)NN)cc1 |  |  |  |  | 23.9 µM (inactive) | > 99 µM (inactive) | 
4 | CCCNC(=O)Cn1c(=O)/c(=C\c2ccc(-c3cccc([N+](=O)[O-])c3)o2)s/c1=C\C(=O)C(C)(C)C |  |  |  |  | > 99 µM (inactive) | > 99 µM (inactive) | EC50 [8]: > 53 µM (inactive)
5 | Cc1ccc(CN2CCN(CC(=O)N/N=C/c3ccccc3F)CC2)cc1 | 14.3 µM (active) | 34.4 µM (active) | > 100 µM (inactive) | 27 µM (active) |  |  | 
6 | CCn1c2ccccc2c2cc(/C=N/NC(=O)c3cc(O)cc(O)c3)ccc21 |  |  |  |  |  |  | EC50 [9]: 0.749 µM (active); AC50 [10]: 8.43 µM (active)
